# Assay results from BindingDB's records for doi:10.1016/s0960-894x(01)00594-7 (The University of Newcastle, 2001).
# Molecular target: Protein phosphatase 1 catalytic subunit (PPP1CA)
# Experiment: Inhibitory concentration against protein phosphatase 1 (PP1) was determined
row,SMILES,IC50
1,"O=C(O)[C@@H](Cc1ccccc1)N1C(=O)[C@@H]2[C@H](C1=O)[C@H]1CC[C@@H]2O1 [(R)-2-((1S,2R,6S,7R)-3,5-Dioxo-10-oxa-4-aza-tricyclo[5.2.1.0*2,6*]dec-4-yl)-3-phenyl-propionic acid]",> 1000 µM
2,"CC(C)C[C@H](C(=O)O)N1C(=O)[C@@H]2[C@H](C1=O)[C@H]1CC[C@@H]2O1 [(R)-2-((1S,2R,6S,7R)-3,5-Dioxo-10-oxa-4-aza-tricyclo[5.2.1.0*2,6*]dec-4-yl)-4-methyl-pentanoic acid]",> 1000 µM
3,"O=C(O)CC[C@H](C(=O)O)N1C(=O)[C@@H]2[C@H](C1=O)[C@H]1CC[C@@H]2O1 [(R)-2-((1S,2R,6S,7R)-3,5-Dioxo-10-oxa-4-aza-tricyclo[5.2.1.0*2,6*]dec-4-yl)-pentanedioic acid]",95 µM
4,"O=C(O)[C@H](Cc1ccccc1)N1C(=O)[C@@H]2[C@H](C1=O)[C@H]1CC[C@@H]2O1 [(S)-2-((1S,2R,6S,7R)-3,5-Dioxo-10-oxa-4-aza-tricyclo[5.2.1.0*2,6*]dec-4-yl)-3-phenyl-propionic acid]",> 1000 µM
5,"CC(C)C[C@@H](C(=O)O)N1C(=O)[C@@H]2[C@H](C1=O)[C@H]1CC[C@@H]2O1 [(S)-2-((1S,2R,6S,7R)-3,5-Dioxo-10-oxa-4-aza-tricyclo[5.2.1.0*2,6*]dec-4-yl)-4-methyl-pentanoic acid]",> 1000 µM
